Results as given in patent publication US10835532B2, “Muscarinic agonists as cognitive enhancers” (The University of Toledo, priority 2008, dated 2020).
Entries after “also recorded” stand apart in the source; their conditions may differ.

Legend:
rats = assay: Place-visual cue attentional set-shifting task (cognitive flexibility); assay type: in vivo, rat
Description: Various neurodegenerative diseases and psychiatric disorders are marked by alterations in brain M1 muscarinic cholinergic receptor function and cognitive deficits including working memory and cognitive flexibility impairments. Alleviating such deficits in conditions such as Alzheimer's disease and schizophrenia has been limited due to a lack of agonists with M1 muscarinic receptor subtype specificity. CDD-102A is a functionally-selective M1 agonist with lower activity at other muscarinic receptor subtypes. The present experiment investigated the effects of systemic treatment with CDD-102A on working memory and/or attentional set-shifting in rats. All testing occurred in a four-arm cross maze. Delayed (30 sec) spontaneous alternation in Long Evans rats was used as a test for working memory. […] A shift between a place and visual cue discrimination was used as an attentional set-shifting test. In this set of experiments, rats received either vehicle or CDD-102A (0.003-0.1 mg/kg) 30 minutes prior to testing in a place-visual cue set-shifting task. A treatment was administered either prior to the acquisition phase or prior to the shift phase. […] To examine cognitive flexibility, animals were evaluated for their ability to learn a place-visual cue task. Local cues in the maze arms included a black board in one arm and white board in the other arm. The cues were switched between the choice arms randomly across trials so the same cue was not always in the same location. Rats first learned to use a place strategy—always enter the same arm to receive a cereal reinforcement. Criterion was set at 10 consecutive correct trials. No treatment was given to rats prior to learning the place strategy test. The results are shown with the two bars on the left side of the graph in FIG. 2, showing that learning of a place-visual cue task. CDD-0102A, at a dose of 0.03 mg/kg decreased the number of trials to criterion (10 consecutive correct choices). Vehicle (N=3), CDD-0102A (N=4). The following day, rats had to inhibit using a place strategy and learn a visual cue strategy. That is, a rat had to choose the arm that contained a particular color cue (e.g., black). The criterion again was set at 10 consecutive correct trials. Rats received either saline (N=3) or CDD-0102A at 0.03 or 0.1 mg/kg (N=4) 30 minutes prior to testing. The results are shown in the middle of FIG. 2. […] Similar studies evaluated the ability of animals to shift from learning a visual cue task to a place strategy. Again criterion was set at 10 consecutive correct trials. Rats received either saline (N=3) or CDD-0102A at 0.03 or 0.1 mg/kg (N=4) 30 minutes prior to testing. The results are shown in the middle of FIG. 3. […] All testing was carried out in a four-arm cross-maze made of 0.6 cm thick black plastic was used for all behavioral testing. The maze was placed on a table that was 72 cm above the floor. Each arm was 55 cm long 10 cm wide. The height of the arm walls was 15.0 cm. Each arm contained a food well (3.2 cm diameter×1.6 cm high) that was 3 cm away from the end wall. Each food-well hole was 2.3 cm in diameter and 1.6 cm deep.

Long Evans rats = assay: Delayed spontaneous alternation in four-arm cross maze (working memory); assay type: in vivo, rat
Description: Various neurodegenerative diseases and psychiatric disorders are marked by alterations in brain M1 muscarinic cholinergic receptor function and cognitive deficits including working memory and cognitive flexibility impairments. Alleviating such deficits in conditions such as Alzheimer's disease and schizophrenia has been limited due to a lack of agonists with M1 muscarinic receptor subtype specificity. CDD-102A is a functionally-selective M1 agonist with lower activity at other muscarinic receptor subtypes. The present experiment investigated the effects of systemic treatment with CDD-102A on working memory and/or attentional set-shifting in rats. All testing occurred in a four-arm cross maze. Delayed (30 sec) spontaneous alternation in Long Evans rats was used as a test for working memory. […] A shift between a place and visual cue discrimination was used as an attentional set-shifting test. In this set of experiments, rats received either vehicle or CDD-102A (0.003-0.1 mg/kg) 30 minutes prior to testing in a place-visual cue set-shifting task. To evaluate the effects of muscarinic agonists on memory function in normal animals, rats were tested on a delayed spontaneous alternation task in a modified T-maze. The task takes advantage of rats' natural tendency to alternate. Animals were placed in a 4-arm maze shaped like a “+”. If a rat chose four different arms in four consecutive choices it was scored as an alternation. A delay was inserted between arm choices to help assess memory function. In the delay version of the task, CDD-0102A (a functionally selective M1 agonist) improved memory function in a dose dependent manner (see FIG. 1). All testing was carried out in a four-arm cross-maze made of 0.6 cm thick black plastic was used for all behavioral testing. The maze was placed on a table that was 72 cm above the floor. Each arm was 55 cm long 10 cm wide. The height of the arm walls was 15.0 cm. […] The number and sequence of arm entries was recorded. An arm entry was recorded when all four paws entered an arm. […]

rat = assay: Salivation following i.p. injections in the rat; assay type: in vivo
Description: FIG. 6 presents a graph comparing the effects of CDD-0102A on memory function and salivation following i.p. injections in the rat.

Alzheimer's subjects = conditions: cited from earlier work
[1] = rats, 0.03 or 0.1 mg/kg 30 minutes prior to testing, compared to controls, hydrochloride
[2] = shift from place cue task to visual cue task, 0.03 and 0.1 mg/kg
[3] = shift from visual cue task to place cue task, 0.03 and 0.1 mg/kg

Row | Lowest dose producing salivation (rat) [mg/kg] | Separation between the dose enhancing place-visual cue learning (0.03 mg/kg i.p.) and the lowest dose producing salivation (rat) | Compound | Acquisition of a place or visual cue discrimination (rats; rats, 0.003-0.1 mg/kg 30 minutes prior to the acquisition phase) | Shift between a place and visual cue discrimination (rats; rats, 0.03 and 0.1 mg/kg, 30 minutes prior to the shift phase) | Trials to criterion (10 consecutive correct choices), shift from place cue task to visual cue task (rats; [1]) | Trials to criterion (10 consecutive correct choices), shift from visual cue task to place cue task (rats; [1]) | Ability to initially inhibit a previously relevant strategy and maintain a new, relevant strategy once selected (rats; rats, shift to the place or to the visual cue strategy) | Number of never-reinforced errors (rats; [2]) | Number of perseverative errors (rats; [2]) | Number of regressive errors (rats; [2]) | Number of never-reinforced errors (rats; [3]) | Number of perseverative errors (rats; [3]) | Number of regressive errors (rats; [3]) | Memory function in the delay version of the spontaneous alternation task (Long Evans rats; normal rats, i.p., dose dependent (FIG. 1)) | Delayed spontaneous alternation performance (Long Evans rats; rats, 0.1, 0.3 and 1 mg/kg i.p. 30 minutes before testing, 30 sec delay, listed as CDD-102A, hydrochloride) | Number of arm entries (locomotor activity) (Long Evans rats; rats, all the doses tested, i.p.) | Side effects associated with activation of M3 receptors (salivation, diarrhea and profuse sweating) (Alzheimer's subjects; Alzheimer's subjects, limited subject compliance) | Psychiatric symptoms such as hallucinations (Alzheimer's subjects; phase II clinical trials in Alzheimer's subjects)
1 | 0.3 | ten-fold lower | CCc1noc(C2CN=CNC2)n1.Cl (stereo not drawn) [CDD-0102A, 5-(3-ethyl-1,2,4-oxadiazol-5-yl)-1,4,5,6-tetrahydropyrimidine hydrochloride] | did not affect | significantly enhanced | about half the trials; also recorded: decreased | decreased; also recorded: about half the trials | significantly increased | decreased | decreased | decreased | no significant impact | decreased | decreased | improved | significantly enhanced | did not alter | – | –
2 | – | – | CCCCCCOc1nsnc1C1=CCCN(C)C1 [xanomeline] | – | – | – | – | – | – | – | – | – | – | – | – | – | – | produced unwanted side effects | significantly improved
